Converted amounts (≈) assume the structure as drawn.
Experiments:
Coxiella burnetii [1] = assay: Antimicrobial activity against compound-susceptible Coxiella burnetii Nine-Mile obtained from patient with acute Q fever infected in african green monkey Vero cells after 24 hrs by shell vial assay; assay type: functional
Coxiella burnetii [2] = assay: Antimicrobial activity against compound-intermediate susceptible Coxiella burnetii Q212 obtained from patient with acute Q fever infected in african green monkey Vero cells after 24 hrs by shell vial assay; assay type: functional; details: Q212, 24 h
Coxiella burnetii [3] = assay: Antimicrobial activity against compound-susceptible Coxiella burnetii Q212 obtained from patient with acute Q fever infected in african green monkey Vero cells after 24 hrs by shell vial assay; assay type: functional; details: Q212, 24 h
Coxiella burnetii [4] = assay: Antimicrobial activity against compound-intermediate susceptible Coxiella burnetii isolate CP1 obtained from patient with acute Q fever infected in african green monkey Vero cells after 24 hrs by shell vial assay; assay type: functional; details: isolate CP1, 24 h
Coxiella burnetii [5] = assay: Antimicrobial activity against compound-susceptible Coxiella burnetii isolate CP1 obtained from patient with acute Q fever infected in african green monkey Vero cells after 24 hrs by shell vial assay; assay type: functional; details: isolate CP1, 24 h
Coxiella burnetii [6] = assay: Antimicrobial activity against compound-susceptible Coxiella burnetii isolate CP2 obtained from patient with acute Q fever infected in african green monkey Vero cells after 24 hrs by shell vial assay; assay type: functional; details: isolate CP2, 24 h
Coxiella burnetii [7] = assay: Antimicrobial activity against compound-susceptible Coxiella burnetii isolate CP3 obtained from patient with acute Q fever infected in african green monkey Vero cells after 24 hrs by shell vial assay; assay type: functional; details: isolate CP3, 24 h
Coxiella burnetii [8] = assay: Antimicrobial activity against compound-intermediate susceptible Coxiella burnetii isolate CP4 obtained from patient with acute Q fever infected in african green monkey Vero cells after 24 hrs by shell vial assay; assay type: functional; details: isolate CP4, 24 h
Coxiella burnetii [9] = assay: Antimicrobial activity against compound-susceptible Coxiella burnetii isolate CP4 obtained from patient with acute Q fever infected in african green monkey Vero cells after 24 hrs by shell vial assay; assay type: functional; details: isolate CP4, 24 h
Coxiella burnetii [10] = assay: Antimicrobial activity against compound-susceptible Coxiella burnetii isolate CP5 obtained from patient with acute Q fever infected in african green monkey Vero cells after 24 hrs by shell vial assay; assay type: functional; details: isolate CP5, 24 h
Coxiella burnetii [11] = assay: Antimicrobial activity against compound-susceptible Coxiella burnetii isolate CP6 obtained from patient with acute Q fever infected in african green monkey Vero cells after 24 hrs by shell vial assay; assay type: functional; details: isolate CP6, 24 h
Coxiella burnetii [12] = assay: Antimicrobial activity against compound-susceptible Coxiella burnetii isolate CP7 obtained from patient with acute Q fever infected in african green monkey Vero cells after 24 hrs by shell vial assay; assay type: functional; details: isolate CP7, 24 h
Coxiella burnetii [13] = assay: Antimicrobial activity against compound-susceptible Coxiella burnetii isolate CP8 obtained from patient with acute Q fever infected in african green monkey Vero cells after 24 hrs by shell vial assay; assay type: functional; details: isolate CP8, 24 h
Vero = assay: Cytotoxicity against african green monkey Vero cells at 4 ug/ml; assay type: cell-based; details: chlorocebus sabaeus

C[C@H]1c2cccc(O)c2C(=O)C2=C(O)[C@]3(O)C(=O)C(C(N)=O)=C(O)[C@@H](N(C)C)[C@@H]3[C@@H](O)[C@@H]21.O [DOXYCYCLINE]
MIC (Coxiella burnetii [1]): 1 µg/mL
MIC (Coxiella burnetii [2]): 1 µg/mL
MIC (Coxiella burnetii [3]): 2 µg/mL
MIC (Coxiella burnetii [4]): 1 µg/mL
MIC (Coxiella burnetii [5]): 2 µg/mL
MIC (Coxiella burnetii [6]): 1 µg/mL
MIC (Coxiella burnetii [7]): 1 µg/mL
MIC (Coxiella burnetii [8]): 1 µg/mL
MIC (Coxiella burnetii [9]): 2 µg/mL
MIC (Coxiella burnetii [10]): 1 µg/mL
MIC (Coxiella burnetii [11]): 1 µg/mL
MIC (Coxiella burnetii [12]): 1 µg/mL
MIC (Coxiella burnetii [13]): 1 µg/mL

CN(C)c1cc(NC(=O)CNC(C)(C)C)c(O)c2c1C[C@H]1C[C@H]3[C@H](N(C)C)C(O)=C(C(N)=O)C(=O)[C@@]3(O)C(O)=C1C2=O [TIGECYCLINE]
MIC (Coxiella burnetii [1]): 0.25 µg/mL (≈ 0.427 µM)
MIC (Coxiella burnetii [2]): 0.25 µg/mL (≈ 0.427 µM)
MIC (Coxiella burnetii [3]): 0.5 µg/mL (≈ 0.854 µM)
MIC (Coxiella burnetii [4]): 0.25 µg/mL (≈ 0.427 µM)
MIC (Coxiella burnetii [5]): 0.5 µg/mL (≈ 0.854 µM)
MIC (Coxiella burnetii [6]): 0.25 µg/mL (≈ 0.427 µM)
MIC (Coxiella burnetii [7]): 0.25 µg/mL (≈ 0.427 µM)
MIC (Coxiella burnetii [9]): 0.25 µg/mL (≈ 0.427 µM)
MIC (Coxiella burnetii [10]): 0.25 µg/mL (≈ 0.427 µM)
MIC (Coxiella burnetii [11]): 0.25 µg/mL (≈ 0.427 µM)
MIC (Coxiella burnetii [12]): 0.25 µg/mL (≈ 0.427 µM)
MIC (Coxiella burnetii [13]): 0.25 µg/mL (≈ 0.427 µM)
Activity (Vero): Non-toxic

O=C(O)c1cn(C2CC2)c2cc(N3CCNCC3)c(F)cc2c1=O [CIPROFLOXACIN]
MIC (Coxiella burnetii [1]): 4 µg/mL (≈ 12.1 µM)
MIC (Coxiella burnetii [2]): 4 µg/mL (≈ 12.1 µM)
MIC (Coxiella burnetii [4]): 4 µg/mL (≈ 12.1 µM)
MIC (Coxiella burnetii [6]): 4 µg/mL (≈ 12.1 µM)
MIC (Coxiella burnetii [7]): 4 µg/mL (≈ 12.1 µM)
MIC (Coxiella burnetii [9]): 4 µg/mL (≈ 12.1 µM)
MIC (Coxiella burnetii [10]): 4 µg/mL (≈ 12.1 µM)
MIC (Coxiella burnetii [11]): 4 µg/mL (≈ 12.1 µM)
MIC (Coxiella burnetii [12]): 4 µg/mL (≈ 12.1 µM)
MIC (Coxiella burnetii [13]): 4 µg/mL (≈ 12.1 µM)

CC(=O)NC[C@H]1CN(c2ccc(N3CCOCC3)c(F)c2)C(=O)O1 [LINEZOLID]
MIC (Coxiella burnetii [1]): 2 µg/mL (≈ 5.93 µM)
MIC (Coxiella burnetii [2]): 2 µg/mL (≈ 5.93 µM)
MIC (Coxiella burnetii [3]): 4 µg/mL (≈ 11.9 µM)
MIC (Coxiella burnetii [4]): 2 µg/mL (≈ 5.93 µM)
MIC (Coxiella burnetii [5]): 4 µg/mL (≈ 11.9 µM)
MIC (Coxiella burnetii [6]): 2 µg/mL (≈ 5.93 µM)
MIC (Coxiella burnetii [7]): 2 µg/mL (≈ 5.93 µM)
MIC (Coxiella burnetii [9]): 2 µg/mL (≈ 5.93 µM)
MIC (Coxiella burnetii [10]): 2 µg/mL (≈ 5.93 µM)
MIC (Coxiella burnetii [11]): 2 µg/mL (≈ 5.93 µM)
MIC (Coxiella burnetii [12]): 2 µg/mL (≈ 5.93 µM)
MIC (Coxiella burnetii [13]): 2 µg/mL (≈ 5.93 µM)

N[C@@H]1[C@H]2CN(c3nc4c(cc3F)c(=O)c(C(=O)O)cn4-c3ccc(F)cc3F)C[C@@H]12 [TROVAFLOXACIN]
MIC (Coxiella burnetii [1]): 1 µg/mL (≈ 2.4 µM)
MIC (Coxiella burnetii [2]): 1 µg/mL (≈ 2.4 µM)
MIC (Coxiella burnetii [3]): 2 µg/mL (≈ 4.8 µM)
MIC (Coxiella burnetii [4]): 1 µg/mL (≈ 2.4 µM)
MIC (Coxiella burnetii [5]): 2 µg/mL (≈ 4.8 µM)
MIC (Coxiella burnetii [6]): 1 µg/mL (≈ 2.4 µM)
MIC (Coxiella burnetii [7]): 1 µg/mL (≈ 2.4 µM)
MIC (Coxiella burnetii [9]): 1 µg/mL (≈ 2.4 µM)
MIC (Coxiella burnetii [10]): 1 µg/mL (≈ 2.4 µM)
MIC (Coxiella burnetii [11]): 1 µg/mL (≈ 2.4 µM)
MIC (Coxiella burnetii [12]): 1 µg/mL (≈ 2.4 µM)
MIC (Coxiella burnetii [13]): 1 µg/mL (≈ 2.4 µM)

CC1COc2c(N3CCN(C)CC3)c(F)cc3c(=O)c(C(=O)O)cn1c23 (centres undefined) [OFLOXACIN]
MIC (Coxiella burnetii [1]): 1 µg/mL (≈ 2.77 µM)
MIC (Coxiella burnetii [2]): 1 µg/mL (≈ 2.77 µM)
MIC (Coxiella burnetii [3]): 2 µg/mL (≈ 5.53 µM)
MIC (Coxiella burnetii [4]): 1 µg/mL (≈ 2.77 µM)
MIC (Coxiella burnetii [5]): 2 µg/mL (≈ 5.53 µM)
MIC (Coxiella burnetii [6]): 1 µg/mL (≈ 2.77 µM)
MIC (Coxiella burnetii [7]): 1 µg/mL (≈ 2.77 µM)
MIC (Coxiella burnetii [9]): 1 µg/mL (≈ 2.77 µM)
MIC (Coxiella burnetii [10]): 1 µg/mL (≈ 2.77 µM)
MIC (Coxiella burnetii [11]): 1 µg/mL (≈ 2.77 µM)
MIC (Coxiella burnetii [12]): 1 µg/mL (≈ 2.77 µM)
MIC (Coxiella burnetii [13]): 1 µg/mL (≈ 2.77 µM)

CC[C@H]1OC(=O)[C@H](C)[C@@H](O[C@H]2C[C@@](C)(OC)[C@@H](O)[C@H](C)O2)[C@H](C)[C@@H](O[C@@H]2O[C@H](C)C[C@H](N(C)C)[C@H]2O)[C@](C)(OC)C[C@@H](C)C(=O)[C@H](C)[C@@H](O)[C@]1(C)O [CLARITHROMYCIN]
MIC (Coxiella burnetii [1]): 2 µg/mL (≈ 2.67 µM)
MIC (Coxiella burnetii [2]): 2 µg/mL (≈ 2.67 µM)
MIC (Coxiella burnetii [3]): 4 µg/mL (≈ 5.35 µM)
MIC (Coxiella burnetii [4]): 2 µg/mL (≈ 2.67 µM)
MIC (Coxiella burnetii [5]): 4 µg/mL (≈ 5.35 µM)
MIC (Coxiella burnetii [6]): 2 µg/mL (≈ 2.67 µM)
MIC (Coxiella burnetii [7]): 2 µg/mL (≈ 2.67 µM)
MIC (Coxiella burnetii [9]): 2 µg/mL (≈ 2.67 µM)
MIC (Coxiella burnetii [10]): 2 µg/mL (≈ 2.67 µM)
MIC (Coxiella burnetii [11]): 2 µg/mL (≈ 2.67 µM)
MIC (Coxiella burnetii [12]): 2 µg/mL (≈ 2.67 µM)
MIC (Coxiella burnetii [13]): 2 µg/mL (≈ 2.67 µM)

— ChEMBL document CHEMBL1649456 (Antimicrob Agents Chemother, 2009)
